Article PMC6572064, “Discovery of 2-(1-(3-(4-Chloroxyphenyl)-3-oxo- propyl)pyrrolidine-3-yl)-1H-benzo[d]imidazole-4-carboxamide: A Potent Poly(ADP-ribose) Polymerase (PARP) Inhibitor for Treatment of Cancer” (Molecules, 2019)
pIC50: −log10 of the molar value. Read-outs that look alike come from different tables or passages of the source.

Columns and labels:
[1] = test system: CAPAN-1 (a BRCA-2-mutated pancreatic cancer cell line); assay: Cell proliferation assay, three-day, CellTiter-Glo, CAPAN-1; type: cell-based; conditions: for inhibition at 0.00508 µM: CAPAN-1, 0.00508 uM; for inhibition at 0.0152 µM: CAPAN-1, 0.0152 uM; for inhibition at 0.0457 µM: CAPAN-1, 0.0457 uM; for inhibition at […]: CAPAN-1, 0.14 uM; for inhibition at 0.41 µM: CAPAN-1, 0.41 uM; for inhibition at 1.23 µM: CAPAN-1, 1.23 uM; for inhibition at 3.7 µM: CAPAN-1, 3.70 uM; for inhibition at 11.11 µM: CAPAN-1, 11.11 uM; for inhibition at 33.33 µM: CAPAN-1, 33.33 uM; for inhibition at 100 µM: CAPAN-1, 100.00 uM
In short: (§1)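 Luminescent ATP read-out (CellTiter-Glo, 60 min at room temperature) quantified viability after a 72 h compound exposure at 37 °C, 5% CO2. Compounds, diluted from DMSO stocks into growth medium, were added to cells plated the previous day.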

PARP-2 = biological target: T1, PARP-2 (Homo sapiens, UniProt Q9UGN5); assay: PARP-2 inhibition assay (PARP-2 Chemiluminescent Assay Kit, BPS Bioscience); type: biochemical; conditions: for inhibition at 0.01 µM: 10 nM compound
T1 construct: purchased BPS Bioscience 80552
T1 sequence (Q9UGN5 whole entry): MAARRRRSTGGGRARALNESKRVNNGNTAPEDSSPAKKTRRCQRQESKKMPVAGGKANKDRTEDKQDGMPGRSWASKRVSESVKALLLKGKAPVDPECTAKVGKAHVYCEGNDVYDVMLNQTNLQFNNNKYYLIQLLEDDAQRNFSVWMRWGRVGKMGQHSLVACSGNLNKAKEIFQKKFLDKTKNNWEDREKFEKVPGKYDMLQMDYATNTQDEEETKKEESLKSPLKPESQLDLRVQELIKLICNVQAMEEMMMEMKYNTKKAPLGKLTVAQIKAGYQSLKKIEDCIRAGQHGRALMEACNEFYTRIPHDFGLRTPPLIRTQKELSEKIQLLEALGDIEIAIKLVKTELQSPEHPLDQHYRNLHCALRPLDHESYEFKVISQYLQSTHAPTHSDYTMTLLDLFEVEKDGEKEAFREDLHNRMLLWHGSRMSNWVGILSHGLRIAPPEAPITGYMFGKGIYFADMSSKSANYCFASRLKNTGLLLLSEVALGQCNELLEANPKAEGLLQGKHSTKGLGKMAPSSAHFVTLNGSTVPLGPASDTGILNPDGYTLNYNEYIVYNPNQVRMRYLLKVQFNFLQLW
Experimental: (§2) The PARP-1 and PARP-2 inhibition assays were performed in outsourcing, by a CRO company, Shanghai Medicilon Inc. (Shanghai, China). […] Briefly, PARP-1 or PARP-2 biotinylated substrate was incubated with compounds or solvent control at varying concentrations and an assay buffer containing the PARP-1 or PARP-2 enzyme.

[2] = test system: MDA-MB-436 (a BRCA-1-mutated breast cancer cell line); assay: Cell proliferation assay, three-day, CellTiter-Glo, MDA-MB-436; type: cell-based; conditions: for inhibition at 0.00508 µM: MDA-MB-436, MDA-MB-436, Conc. 0.00508 uM; for inhibition at 0.0152 µM: MDA-MB-436, MDA-MB-436, Conc. 0.0152 uM; for inhibition at 0.0457 µM: MDA-MB-436, MDA-MB-436, Conc. 0.0457 uM; for inhibition at 0.41 µM: MDA-MB-436, MDA-MB-436, Conc. 0.41 uM; for inhibition at 1.23 µM: MDA-MB-436, MDA-MB-436, Conc. 1.23 uM; for inhibition at 3.7 µM: MDA-MB-436, MDA-MB-436, Conc. 3.70 uM; for inhibition at 11.11 µM: MDA-MB-436, MDA-MB-436, Conc. 11.11 uM; for inhibition at 33.33 µM: MDA-MB-436, MDA-MB-436, Conc. 33.33 uM; for inhibition at 100 µM: MDA-MB-436, MDA-MB-436, Conc. 100.00 uM
In short: as §1

PARP-1 = biological target: T2, PARP-1 (Homo sapiens, UniProt P09874); assay: PARP-1 inhibition assay (PARP-1 Chemiluminescent Assay Kit, BPS Bioscience); type: biochemical; conditions: for inhibition at 0.01 µM: 10 nM compound
T2 construct: purchased BPS Bioscience 80569
T2 sequence (P09874 whole entry): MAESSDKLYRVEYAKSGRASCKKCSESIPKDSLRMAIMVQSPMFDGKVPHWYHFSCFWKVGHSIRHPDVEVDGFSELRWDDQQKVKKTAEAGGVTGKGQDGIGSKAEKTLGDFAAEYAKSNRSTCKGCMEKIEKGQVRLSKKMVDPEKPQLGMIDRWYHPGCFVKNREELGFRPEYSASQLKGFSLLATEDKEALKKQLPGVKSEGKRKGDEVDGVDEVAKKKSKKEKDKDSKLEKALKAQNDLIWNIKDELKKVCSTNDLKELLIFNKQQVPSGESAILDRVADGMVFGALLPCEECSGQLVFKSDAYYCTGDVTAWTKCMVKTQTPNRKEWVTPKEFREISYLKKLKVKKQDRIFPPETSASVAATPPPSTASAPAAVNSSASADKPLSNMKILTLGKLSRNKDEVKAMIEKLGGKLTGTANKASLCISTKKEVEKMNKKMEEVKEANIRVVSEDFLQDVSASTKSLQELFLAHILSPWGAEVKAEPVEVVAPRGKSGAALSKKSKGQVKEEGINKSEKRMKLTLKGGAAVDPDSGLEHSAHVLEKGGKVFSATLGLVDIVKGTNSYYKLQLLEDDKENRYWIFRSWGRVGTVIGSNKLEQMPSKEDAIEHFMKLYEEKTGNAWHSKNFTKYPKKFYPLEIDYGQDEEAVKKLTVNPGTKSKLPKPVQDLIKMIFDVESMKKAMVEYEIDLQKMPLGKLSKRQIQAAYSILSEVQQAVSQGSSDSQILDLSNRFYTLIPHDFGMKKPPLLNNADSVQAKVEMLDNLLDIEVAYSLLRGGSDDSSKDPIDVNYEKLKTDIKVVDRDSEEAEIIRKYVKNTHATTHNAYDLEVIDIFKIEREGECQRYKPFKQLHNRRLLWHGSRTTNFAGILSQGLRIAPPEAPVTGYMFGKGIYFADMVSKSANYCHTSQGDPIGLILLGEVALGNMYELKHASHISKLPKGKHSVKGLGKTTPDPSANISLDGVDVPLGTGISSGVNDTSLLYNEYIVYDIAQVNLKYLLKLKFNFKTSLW
Experimental: as §2

[3] = Homo sapiens, replicate 1, read-out: Inh % 1
[4] = Homo sapiens, replicate 2, read-out: Inh % 2

- pIC50 ([1]; Homo sapiens, CAPAN-1, 72 h, CellTiter-Glo, read-out: CAPAN-1 IC50): 4.68
- pIC50 ([1]; Homo sapiens, CAPAN-1, 72 h, supplement Summary sheet, read-out: IC50): 4.68
- IC50 ([1]; Homo sapiens, CAPAN-1, curve-fit output, concentrations in uM, read-out: IC50): 20.7 µM
- inhibition at 0.01 µM (PARP-2; supplement sheet, read-out: 10 nM inhibition% PAPR-2): 62.3%
- inhibition at 0.01 µM (PARP-2; read-out: PARP-2 Inhibition % (10 nM)): 62.3%
- pIC50 (PARP-2; read-out: PARP-2 IC50): 8.24
- pIC50 (PARP-2; supplement sheet, read-out: IC50 PAPR-2): 8.24
- pIC50 ([2]; Homo sapiens, MDA-MB-436, 72 h, CellTiter-Glo, read-out: MDA-MB-436 IC50): 4.50
- pIC50 ([2]; Homo sapiens, MDA-MB-436, 72 h, supplement Summary sheet, read-out: IC50): 4.50
- IC50 ([2]; Homo sapiens, MDA-MB-436, curve fit list, no unit in the cell, concentration in uM, read-out: IC50): 31.9 µM
- inhibition at 0.01 µM (PARP-1; supplement sheet, read-out: 10 nM inhibition% PAPR-1): 42.8%
- inhibition at 0.01 µM (PARP-1; read-out: PARP-1 Inhibition % (10 nM)): 42.8%
- pIC50 (PARP-1; read-out: PARP-1 IC50): 7.91
- pIC50 (PARP-1; supplement sheet, read-out: IC50 PAPR-1): 7.91
SMILES: NC(=O)c1cccc2[nH]c(C3CCN(CCCC(=O)c4ccccc4)C3)nc12 (centres unmarked) [Compound 5cc, 2-(1-(4-Oxo-4-phenylbutyl)pyrrolidin-3-yl)-1H-benzo[d]imidazole-4-carboxamide]
- LogIC50 ([1]; CAPAN-1, curve-fit output, Log (uM)): 1.317
- inhibition at 0.00508 µM [1, 3]: -7.2%
- inhibition at 0.00508 µM [1, 4]: 1.2%
- inhibition at 0.0152 µM [1, 3]: 1.3%
- inhibition at 0.0152 µM [1, 4]: 4.1%
- inhibition at 0.0457 µM [1, 3]: 1.4%
- inhibition at 0.0457 µM [1, 4]: 9%
- inhibition at […] [1, 3]: 8.1%
- inhibition at […] [1, 4]: 7.4%
- inhibition at 0.41 µM [1, 3]: 22.4%
- inhibition at 0.41 µM [1, 4]: 6.9%
- inhibition at 1.23 µM [1, 3]: 18%
- inhibition at 1.23 µM [1, 4]: 5.8%
- inhibition at 3.7 µM [1, 3]: 5.7%
- inhibition at 3.7 µM [1, 4]: 1.6%
- inhibition at 11.11 µM [1, 3]: 14.5%
- inhibition at 11.11 µM [1, 4]: 8.2%
- inhibition at 33.33 µM [1, 3]: 93.8%
- inhibition at 33.33 µM [1, 4]: 86.5%
- inhibition at 100 µM [1, 3]: 100%
- inhibition at 100 µM [1, 4]: 99.5%
- inhibition at 0.00508 µM [2, 3]: -5%
- inhibition at 0.00508 µM [2, 4]: -0.000277%
- inhibition at 0.0152 µM [2, 3]: -5.6%
- inhibition at 0.0152 µM [2, 4]: -6.4%
- inhibition at 0.0457 µM [2, 3]: -12.8%
- inhibition at 0.0457 µM [2, 4]: -9.3%
- inhibition at 0.41 µM [2, 3]: -7.7%
- inhibition at 0.41 µM [2, 4]: -9%
- inhibition at 1.23 µM [2, 3]: -9.6%
- inhibition at 1.23 µM [2, 4]: -10.8%
- inhibition at 3.7 µM [2, 3]: -9.3%
- inhibition at 3.7 µM [2, 4]: -9.7%
- inhibition at 11.11 µM [2, 3]: -6.6%
- inhibition at 11.11 µM [2, 4]: -8.1%
- inhibition at 33.33 µM [2, 3]: 62%
- inhibition at 33.33 µM [2, 4]: 38.7%
- inhibition at 100 µM [2, 3]: 99.6%
- inhibition at 100 µM [2, 4]: 99.3%
- LogIC50 ([2]; MDA-MB-436, curve fit on Log (uM) concentrations): 1.504
- Bottom ([2]; MDA-MB-436, curve fit parameter (Inh %)): -8.27
- Top ([2]; MDA-MB-436, curve fit parameter (Inh %), '= 100.0' is a constrained value): 100
